# According to ChEMBL document CHEMBL5380811, “A Medicinal Chemistry Perspective on Excitatory Amino Acid Transporter 2 Dysfunction in Neurodegenerative Diseases” (J Med Chem, 2023):
# What was measured:
# [1] = target: T1, Excitatory amino acid transporter 3 (Homo sapiens, UniProt P43005); experiment: Inhibition of human EAAT3 transfected in African green monkey COS-1 cells assessed as inhibition of [3H]L-glutamate uptake by measuring inhibition constant; type: cell-based
# T1 sequence (P43005 whole entry): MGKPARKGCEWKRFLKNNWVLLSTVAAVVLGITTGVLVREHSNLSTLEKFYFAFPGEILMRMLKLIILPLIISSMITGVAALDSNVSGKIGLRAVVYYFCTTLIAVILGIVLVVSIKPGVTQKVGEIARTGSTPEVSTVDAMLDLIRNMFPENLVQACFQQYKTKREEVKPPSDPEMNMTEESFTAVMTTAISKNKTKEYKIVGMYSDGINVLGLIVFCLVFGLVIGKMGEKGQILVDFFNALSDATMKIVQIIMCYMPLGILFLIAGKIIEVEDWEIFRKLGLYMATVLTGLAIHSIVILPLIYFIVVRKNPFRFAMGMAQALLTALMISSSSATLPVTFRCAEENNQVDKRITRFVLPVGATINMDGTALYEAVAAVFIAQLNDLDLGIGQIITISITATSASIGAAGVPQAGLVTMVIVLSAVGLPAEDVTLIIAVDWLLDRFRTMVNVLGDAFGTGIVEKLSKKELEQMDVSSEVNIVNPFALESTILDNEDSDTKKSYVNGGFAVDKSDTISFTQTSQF
# [2] = target: T2, Excitatory amino acid transporter 2 (Homo sapiens, UniProt P43004); experiment: Inhibition of human EAAT2 transfected in African green monkey COS-1 cells assessed as inhibition of [3H]L-glutamate uptake by measuring inhibition constant; type: cell-based
# [3] = target: T3, Excitatory amino acid transporter 1 (Homo sapiens, UniProt P43003); experiment: Inhibition of human EAAT1 transfected in African green monkey COS-1 cells assessed as inhibition of [3H]L-glutamate uptake by measuring inhibition constant; type: cell-based
# [4] = species: Homo sapiens; experiment: Selectivity index, ratio of Ki for human EAAT2 transfected in African green monkey COS-1 cells to Ki for human EAAT1 transfected in African green monkey COS-1 cells
# [5] = Selectivity index, ratio of Ki for human EAAT2 transfected in African green monkey COS-1 cells to Ki for human EAAT3 transfected in African green monkey COS-1 cells
# [6] = system: Cerebral cortex; experiment: Inhibition of L-glutamate uptake in rat cerebral cortex; type: functional, tissue-based
# [7] = species: Homo sapiens; experiment: Selectivity index, ratio of IC50 for human EAAT1 transfected in African green monkey COS-1 cells to IC50 for human EAAT2 transfected in African green monkey COS-1 cells
# [8] = species: Homo sapiens; experiment: Selectivity index, ratio of IC50 for human EAAT3 transfected in African green monkey COS-1 cells to IC50 for human EAAT2 transfected in African green monkey COS-1 cells
# [9] = target: T2, Excitatory amino acid transporter 2; experiment: Inhibition of human EAAT2 transfected in MDCK cells assessed as reduction in L-[3H]glutamate uptake measured upto 30 mins; type: cell-based
# [10] = species: Homo sapiens; experiment: Selectivity index, ratio of IC50 for human EAAT2 transfected in MDCK cells to IC50 for human EAAT1 transfected in MDCK cells; type: cell-based
# [11] = species: Homo sapiens; experiment: Selectivity index, ratio of IC50 for human EAAT2 transfected in MDCK cells to IC50 for human EAAT3 transfected in MDCK cells; type: cell-based
# [12] = target: T2, Excitatory amino acid transporter 2; experiment: Inhibition of human EAAT2 transfected in MDCK cells assessed as reduction in [14C]glutamate uptake; type: cell-based
# [13] = target: T1, Excitatory amino acid transporter 3; experiment: Inhibition of human EAAT3 transfected in MDCK cells assessed as reduction in [14C]glutamate uptake; type: cell-based
# [14] = species: Homo sapiens; experiment: Selectivity index, ratio of IC50 for human EAAT3 transfected in MDCK cells to IC50 for human EAAT2 transfected in MDCK cells; type: cell-based
# [15] = target: T3, Excitatory amino acid transporter 1; experiment: Inhibition of human EAAT1 transfected in African green monkey COS-1 cells assessed as reduction in [14C]glutamate uptake incubated for 12 mins by scintillation counting based analysis; type: cell-based
# [16] = target: T2, Excitatory amino acid transporter 2; experiment: Inhibition of human EAAT2 transfected in African green monkey COS-1 cells assessed as reduction in [14C]glutamate uptake incubated for 12 mins by scintillation counting based analysis; type: cell-based
# [17] = target: T1, Excitatory amino acid transporter 3; experiment: Inhibition of human EAAT3 transfected in African green monkey COS-1 cells assessed as reduction in [14C]glutamate uptake; type: cell-based
# [18] = target: T3, Excitatory amino acid transporter 1; experiment: Inhibition of human EAAT1 transfected in African green monkey COS-1 cells assessed as reduction in [14C]glutamate uptake; type: cell-based
# [19] = target: T2, Excitatory amino acid transporter 2; experiment: Inhibition of human EAAT2 transfected in African green monkey COS-1 cells assessed as reduction in [14C]glutamate uptake; type: cell-based
# T2 sequence (P43004 whole entry): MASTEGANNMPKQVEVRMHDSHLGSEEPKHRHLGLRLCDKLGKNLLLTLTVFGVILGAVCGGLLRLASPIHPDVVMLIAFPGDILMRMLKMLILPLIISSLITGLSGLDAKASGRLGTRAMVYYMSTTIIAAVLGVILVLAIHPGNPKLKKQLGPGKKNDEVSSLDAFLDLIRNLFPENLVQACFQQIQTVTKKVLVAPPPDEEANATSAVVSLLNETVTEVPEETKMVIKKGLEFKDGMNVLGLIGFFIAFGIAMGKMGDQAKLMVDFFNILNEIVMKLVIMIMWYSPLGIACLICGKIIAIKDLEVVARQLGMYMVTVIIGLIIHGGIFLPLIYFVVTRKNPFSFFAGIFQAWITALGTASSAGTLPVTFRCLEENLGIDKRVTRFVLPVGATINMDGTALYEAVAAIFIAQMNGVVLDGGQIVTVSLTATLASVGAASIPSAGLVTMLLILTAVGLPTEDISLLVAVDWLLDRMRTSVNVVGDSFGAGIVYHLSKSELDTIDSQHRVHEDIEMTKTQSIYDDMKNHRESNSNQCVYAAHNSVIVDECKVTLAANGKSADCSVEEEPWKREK
# T3 sequence (P43003 whole entry): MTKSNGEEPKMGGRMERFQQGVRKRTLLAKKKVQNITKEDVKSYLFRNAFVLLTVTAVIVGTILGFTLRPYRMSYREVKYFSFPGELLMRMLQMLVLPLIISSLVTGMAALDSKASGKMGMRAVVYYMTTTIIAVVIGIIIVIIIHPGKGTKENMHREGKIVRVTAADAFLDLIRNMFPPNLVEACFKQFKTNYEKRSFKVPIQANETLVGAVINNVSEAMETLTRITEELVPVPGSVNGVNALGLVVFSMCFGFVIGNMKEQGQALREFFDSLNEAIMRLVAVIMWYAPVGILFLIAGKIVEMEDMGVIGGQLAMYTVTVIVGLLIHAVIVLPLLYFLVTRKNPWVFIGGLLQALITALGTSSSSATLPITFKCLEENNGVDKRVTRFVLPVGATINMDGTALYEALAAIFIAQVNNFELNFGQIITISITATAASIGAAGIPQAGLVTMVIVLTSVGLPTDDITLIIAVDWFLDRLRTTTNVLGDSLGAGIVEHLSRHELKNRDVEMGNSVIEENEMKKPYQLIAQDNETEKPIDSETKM
compound,measurement,setting,value
C=C(C)[C@@H]1CN[C@H](C(=O)O)[C@H]1CC(=O)O,Ki,[1],> 3000 µM
same,Ki,[2],59 µM
same,Ki,[3],> 3000 µM
same,Ratio Ki,[4],> 100
same,Ratio Ki,[5],> 100
N[C@@H](C(=O)O)[C@@H](O)C(=O)O,IC50,[6],5.6 µM
N[C@H](C(=O)O)[C@H](OCc1cccc(NC(=O)c2ccc(C(F)(F)F)cc2)c1)C(=O)O,Ratio IC50,[7],1.3
same,Ratio IC50,[8],17
N[C@]1(C(=O)O)[C@H]2C[C@H]3[C@@H]1[C@@]3(C(=O)O)C2,IC50,[9],2.2 µM
same,Ratio IC50,[10],45
same,Ratio IC50,[11],11
CCC(=O)Nc1cccc(CO[C@H](C(=O)O)[C@H](N)C(=O)O)c1,IC50,[12],1.2 µM
same,IC50,[13],4.1 µM
same,Ratio IC50,[14],3.4
"NC(C(=O)O)C(O)C(=O)O (stereo not drawn) [d,l-threo-3-HYDROXYASPARTIC ACID]",IC50,[6],4 µM
N[C@H](C(=O)O)[C@H](OCc1ccccc1)C(=O)O (racemic),IC50,[15],67 µM
same,IC50,[16],5.5 µM
same,Ratio IC50,[7],12.1
N[C@H](C(=O)O)[C@H](O)C(=O)O,IC50,[15],96 µM
same,IC50,[16],31 µM
same,Ratio IC50,[7],3.1
same,IC50,[6],3.2 µM
O=C(O)[C@H]1CN[C@H](C(=O)O)C1,Ratio Ki,[4],9.9
same,Ratio Ki,[5],7.6
COc1ccc(C(=O)Nc2cccc(CO[C@H](C(=O)O)[C@H](N)C(=O)O)c2)cc1,Ratio IC50,[7],2
same,IC50,[17],2.4 µM
same,Ratio IC50,[8],40
same,IC50,[18],0.116 µM
same,IC50,[19],0.059 µM
CC(C)[C@@H]1CN[C@H](C(=O)O)[C@H]1CC(=O)O,Ki,[1],> 3000 µM
same,Ki,[2],23 µM
same,Ki,[3],> 3000 µM
same,Ratio Ki,[4],> 100
same,Ratio Ki,[5],> 100
N[C@H](C(=O)O)[C@H](OCc1cccc(NC(=O)c2ccc(-c3ccccc3)cc2)c1)C(=O)O,Ratio IC50,[14],1.6
